From PMC10142861, “Synthesis, Antiproliferative Effect and In Silico LogP Prediction of BIM-23052 Analogs Containing Tyr Instead of Phe” (Pharmaceutics, 2023)
“And” between values parts separate entries of the source, which are not always exact repeats. Equal values may be shown once. Read-outs that look alike come from different tables or passages of the source. Square brackets hold non-standard residues; d marks the D form. Peptide text beside a SMILES is read from it.

Tests used:
in vitro = conditions: mouse
Excerpt: (§1) The breast cancer cells MDA-MB-231 (ATCC: HTB-26) and MCF-7 (ATCC: HTB-22) were used to determine antiproliferative activity under in vitro conditions. The breast epithelial cells (MCF-10A, ATCC: CRL-10317) and mouse embryonic fibroblasts (BALB/c 3T3 clone A31, ATCC: CCL-163) were used as control. Cell cultures were purchased from American Type Cultures Collection (ATCC, Manassas, Virginia, USA). In cell culture, growth medium DMEM-high glucose, 10% (v/v) FBS and antibiotics (Sigma-Aldrich, Schnelldorf, Germany) were used. Cells were incubated at 37 °C, 5% CO2 and 95% humidity. Cells were grown in plastic flasks with a surface of 75 cm^2 (Deltalab S.L., Barcelona, Spain).
A safety test was performed on the method BALB/c 3T3 Neutral Red Uptake cytotoxicity Assay. The data generated from the in vitro cytotoxicity assay can be used to determine the safety level of the investigated substances and can predict the starting doses for in vivo toxicity assays. The cells (BALB/c 3T3, clone A31) were seeded at 1 × 10^4 cells/100 μL/well in 96-well flat-bottomed microplates. The plates were placed in a thermostat at 37 °C, 5% CO2 and 95% humidity for 24 h. Peptides were pre-dissolved in DMSO and then culture medium (DMEM) was added. The cells were treated with the BIM-23052 analogs at concentrations from […]. The treated cell culture was incubated for 24 h in a thermostat under standard conditions. The microplates were then washed twice with PBS, and Neutral Red Desorb (1% acetic acid/50% ethanol/49% water) was added. Absorbance was measured by a microplate reader at a wavelength of 540 nm.
The safety test of BIM-23052 analogues was carried out by Neutral Red Uptake cytotoxicity Assay. Cell cultures were incubated with the tested peptide analogs for 24 h.
Mean values are presented ± SD from three independent experiments, n = 6.

[1] = tested on: MCF-7 breast cancer cells; conditions: for IC50: 72 h
Excerpt: as §1
(§2) Cell viability was determined by a colorimetric MTT-dye reduction assay. The method is based on an enzyme reaction leading to the reduction of […] (MTT) to formazan crystals. The concentration of formazan, which is directly proportional to cell viability, was determined by a spectrophotometric method. Cells (MCF-7, MDA-MB-231 and MCF-10A) were seeded at a 1 × 10^3 cells/100 µL/well in 96-well microplates. The plates were placed in a thermostat under standard conditions for 24 h. Cells were then treated with the peptide analogs at concentrations ranging from 7.5 to 2000 μm. The cells were then incubated in a thermostat for 72 h. The formazan concentration was measured spectrophotometrically by a microplate reader at a wavelength of 540 nm. The antiproliferative potential of BIM-23052 analogs was presented as IC50 values, calculated using GraphPad Prizm Software (San Diego, CA, USA).
(§3) The antiproliferative activity of BIM-23052 analogs was studied by MTT assay. The normal and tumor cell cultures were incubated with the peptide analogs with a concentration range from 7.5 to 2000 μm for 72 h. The antiproliferative activity was determined (Figure 3 and Table 3).
(§4) Figure 3 Dose–response curves for antiproliferative activity of BIM-23052 analogs determined in MCF-10A (ATCC® CRL-10317^TM), MCF-7 (ATCC® HTB-22^TM) and MDA-MB-231 (ATCC® HTB-26^TM) cell lines. Mean values are presented ± SD from three independent experiments, n = 6.

[2] = tested on: MDA-MB-231 breast cancer cells; conditions: for IC50: 72 h
Excerpt: as §1, §2, §3, §4

[3] = tested on: MCF-10A breast epithelial cells; conditions: 72 h
Excerpt: as §1, §2, §3, §4

[4] = read-out: Mean IC50 ± SD, Antiproliferative Effect, MCF-7, MTT, 7.5 to 2000 μm, absorbance 540 nm, mean ± SD, three independent experiments, n = 6
[5] = read-out: Mean IC50 ± SD, Antiproliferative Effect, MDA-MB-231, MTT, 7.5 to 2000 μm, absorbance 540 nm, mean ± SD, three independent experiments, n = 6
[6] = read-out: Mean IC50 ± SD, Antiproliferative Effect, MCF-10A, MTT, 7.5 to 2000 μm, absorbance 540 nm, mean ± SD, three independent experiments, n = 6
[7] = SI = IC50 MCF-10A/IC50 MDA-MB-231
[8] = BALB/c 3T3 clone A31 mouse embryonic fibroblasts

C[C@@H](O)[C@H](NC(=O)[C@H](Cc1ccccc1)NC(=O)[C@@H](NC(=O)[C@H](CCCCN)NC(=O)[C@@H](Cc1c[nH]c2ccccc12)NC(=O)[C@H](Cc1ccccc1)NC(=O)[C@H](Cc1ccccc1)NC(=O)[C@H](N)Cc1ccccc1)[C@@H](C)O)C(N)=O [BIM-23052, D-Phe-Phe-Phe-D-Trp-Lys-Thr-Phe-Thr-NH2] (H-[dF]FF[dW]KTFT-NH2)
IC50 at 24 h (in vitro): 483 ± 32.1 µM
Selectivity index SI, MCF-7 ([1]; 2 h): 1.7
IC50 [1]: 120 ± 6.53 µM
Selectivity index SI, MDA-MB-231 ([2]; 2 h): 0.61
IC50 [2]: 335 ± 15.4 µM
IC50 [3]: 204 ± 6.32 µM

N.N.[Cl][Pt][Cl] [Cisplatin, reference compound]
IC50 [1, 4]: 43.1 ± 3.16 µM
IC50 [2, 5]: 6.94 ± 0.47 µM
IC50 [3, 6]: 64.3 ± 2.11 µM

C[C@@H](O)[C@H](NC(=O)[C@H](Cc1ccccc1)NC(=O)[C@@H](NC(=O)[C@H](CCCCN)NC(=O)[C@@H](Cc1c[nH]c2ccccc12)NC(=O)[C@H](Cc1ccc(O)cc1)NC(=O)[C@H](Cc1ccc(O)cc1)NC(=O)[C@@H](N)Cc1ccc(O)cc1)[C@@H](C)O)C(N)=O [D6, L-Tyr^1-Tyr^2-Tyr^3-D-Trp-Lys-Thr-Phe-Thr-NH2] (H-YYY[dW]KTFT-NH2)
IC50 at 24 h (in vitro): > 1000 µM and 1320 µM
Selectivity index SI, MCF-7 ([1]; SI = IC50 MCF-10A/IC50 MCF-7): 0.53
IC50 [1, 4]: 359 ± 16.1 µM
Selectivity index SI, MDA-MB-231 [2, 7]: 0.66
IC50 [2, 5]: 291 ± 12.7 µM
IC50 [3, 6]: 191 ± 6.8 µM

C[C@@H](O)[C@H](NC(=O)[C@H](Cc1ccc(O)cc1)NC(=O)[C@@H](NC(=O)[C@H](CCCCN)NC(=O)[C@@H](Cc1c[nH]c2ccccc12)NC(=O)[C@H](Cc1ccccc1)NC(=O)[C@H](Cc1ccc(O)cc1)NC(=O)[C@@H](N)Cc1ccc(O)cc1)[C@@H](C)O)C(N)=O [D7, L-Tyr^1-Tyr^2-Phe-D-Trp-Lys-Thr-Tyr^7-Thr-NH2] (H-YYF[dW]KTYT-NH2)
IC50 at 24 h (in vitro): 737 ± 20 µM
Selectivity index SI, MCF-7 ([1]; SI = IC50 MCF-10A/IC50 MCF-7): 1.07
IC50 [1, 4]: 403 ± 24.9 µM
Selectivity index SI, MDA-MB-231 [2, 7]: 0.55
IC50 [2, 5]: 782 ± 19 µM
IC50 [3, 6]: 433 ± 23.2 µM

C[C@@H](O)[C@H](NC(=O)[C@H](Cc1ccc(O)cc1)NC(=O)[C@@H](NC(=O)[C@H](CCCCN)NC(=O)[C@@H](Cc1c[nH]c2ccccc12)NC(=O)[C@H](Cc1ccc(O)cc1)NC(=O)[C@H](Cc1ccc(O)cc1)NC(=O)[C@@H](N)Cc1ccc(O)cc1)[C@@H](C)O)C(N)=O [D9, L-Tyr^1-Tyr^2-Tyr^3-D-Trp-Lys-Thr-Tyr^7-Thr-NH2] (H-YYY[dW]KTYT-NH2)
IC50 at 24 h (in vitro): > 1000 µM and 1430 µM
Selectivity index SI, MCF-7 ([1]; SI = IC50 MCF-10A/IC50 MCF-7): 0.83
IC50 [1, 4]: 477 ± 31.4 µM
Selectivity index SI, MDA-MB-231 [2, 7]: 0.28
IC50 [2, 5]: 1410 ± 19.1 µM
IC50 [3, 6]: 395 ± 15.3 µM

C[C@@H](O)[C@H](NC(=O)[C@H](Cc1ccccc1)NC(=O)[C@@H](NC(=O)[C@H](CCCCN)NC(=O)[C@@H](Cc1c[nH]c2ccccc12)NC(=O)[C@H](Cc1ccccc1)NC(=O)[C@H](Cc1ccccc1)NC(=O)[C@H](N)Cc1ccc(O)cc1)[C@@H](C)O)C(N)=O [D11, D-Tyr^1-Phe-Phe-D-Trp-Lys-Thr-Phe-Thr-NH2] (H-[dY]FF[dW]KTFT-NH2)
IC50 at 24 h (in vitro): > 1000 µM and 1630 µM
Selectivity index SI, MCF-7 ([1]; SI = IC50 MCF-10A/IC50 MCF-7): 0.99
IC50 [1, 4]: 873 ± 26.6 µM
Selectivity index SI, MDA-MB-231 [2, 7]: 0.50
IC50 [2, 5]: 1720 ± 58.6 µM
IC50 [3, 6]: 864 ± 52.3 µM

C[C@@H](O)[C@H](NC(=O)[C@H](Cc1ccc(O)cc1)NC(=O)[C@@H](NC(=O)[C@H](CCCCN)NC(=O)[C@@H](Cc1c[nH]c2ccccc12)NC(=O)[C@H](Cc1ccc(O)cc1)NC(=O)[C@H](Cc1ccc(O)cc1)NC(=O)[C@H](N)Cc1ccccc1)[C@@H](C)O)C(N)=O [D61, D-Phe-Tyr^2-Tyr^3-D-Trp-Lys-Thr-Tyr^7-Thr-NH2] (H-[dF]YY[dW]KTYT-NH2)
IC50 at 24 h (in vitro): 1200 ± 100 µM
IC50 at 24 h (in vitro; [8]): > 1000 µM
Selectivity index SI, MCF-7 ([1]; 2 h): 1.3
IC50 [1]: 426 ± 23.9 µM
Selectivity index SI, MDA-MB-231 ([2]; 2 h): 0.69
IC50 [2]: 798 ± 24.4 µM
IC50 [3]: 555 ± 21.3 µM

C[C@@H](O)[C@H](NC(=O)[C@H](Cc1ccc(O)cc1)NC(=O)[C@@H](NC(=O)[C@H](CCCCN)NC(=O)[C@@H](Cc1c[nH]c2ccccc12)NC(=O)[C@H](Cc1ccc(O)cc1)NC(=O)[C@H](Cc1ccc(O)cc1)NC(=O)[C@H](N)Cc1ccc(O)cc1)[C@@H](C)O)C(N)=O [D91, D-Tyr^1-Tyr^2-Tyr^3-D-Trp-Lys-Thr-Tyr^7-Thr-NH2] (H-[dY]YY[dW]KTYT-NH2)
IC50 at 24 h (in vitro): 975 ± 81.7 µM
Selectivity index SI, MCF-7 ([1]; 2 h): 1.02
IC50 [1]: 527 ± 54.2 µM
Selectivity index SI, MDA-MB-231 ([2]; 2 h): 0.64
IC50 [2]: 849 ± 21.2 µM
IC50 [3]: 540 ± 27.2 µM

C[C@@H](O)[C@H](NC(=O)[C@H](Cc1ccccc1)NC(=O)[C@@H](NC(=O)[C@H](CCCCN)NC(=O)[C@@H](Cc1c[nH]c2ccccc12)NC(=O)[C@H](Cc1ccc(O)cc1)NC(=O)[C@H](Cc1ccc(O)cc1)NC(=O)[C@H](N)Cc1ccccc1)[C@@H](C)O)C(N)=O [D101, D-Phe-Tyr^2-Tyr^3-D-Trp-Lys-Thr-Phe-Thr-NH2] (H-[dF]YY[dW]KTFT-NH2)
IC50 at 24 h (in vitro): 1400 ± 52.3 µM
IC50 at 24 h (in vitro; [8]): > 1000 µM
Selectivity index SI, MCF-7 ([1]; 2 h): 0.84
IC50 [1]: 717 ± 20.8 µM
Selectivity index SI, MDA-MB-231 ([2]; 2 h): 0.43
IC50 [2]: 1400 ± 20 µM
IC50 [3]: 604 ± 24.7 µM

C[C@@H](O)[C@H](NC(=O)[C@H](Cc1ccc(O)cc1)NC(=O)[C@@H](NC(=O)[C@H](CCCCN)NC(=O)[C@@H](Cc1c[nH]c2ccccc12)NC(=O)[C@H](Cc1ccccc1)NC(=O)[C@H](Cc1ccccc1)NC(=O)[C@H](N)Cc1ccccc1)[C@@H](C)O)C(N)=O [DD8, D-Phe-Phe-Phe-D-Trp-Lys-Thr-Tyr^7-Thr-NH2] (H-[dF]FF[dW]KTYT-NH2)
IC50 at 24 h (in vitro): 483 ± 33.9 µM
Selectivity index SI, MCF-7 ([1]; 2 h): 0.69
IC50 [1]: 235 ± 14.3 µM
Selectivity index SI, MDA-MB-231 ([2]; 2 h): 0.67
IC50 [2]: 241 ± 13.4 µM
IC50 [3]: 161 ± 7.97 µM
